System: PDE1
Test: In vitro HTRF PDE1 inhibition assay
Assay type: biochemical
Conditions: HTRF cGMP assay, 100 nM cyclic GMP, PDE (1A3, 1B or 1C) with calmodulin, 45 minutes at 37° C.; isoform of the tabulated values not stated
Description: An exemplary procedure for the in vitro Homogenous Time Resolved Fluorescence assay, which can be used to determine the inhibitory action of compounds of the invention toward. PDE1 or its isoforms, follows.
The HTRF PDE1 assay utilized the HTRF (Homogenous Time Resolved Fluorescence) technology, which is based on the competition between unlabeled cyclic nucleotide and cyclic nucleotide labeled with XL665 for the binding to cyclic nucleotide-specific antibody labeled with cryptate. The HTRF signal is thus inversely proportional to the concentration of cyclic nucleotide being measured. Since phosphodiesterases break down cyclic nucleotides the HTRF signal was used to determine PDE activity.
The Cisbio cGMP HTRF assay kit (Cat no: 62GM2PEC) was utilized. Cyclic GMP was diluted to 200 nM in HTRF assay buffer (1 mM CaCl2, 10 mM MgCl2, 10 mM Tris-HCl, 0.1% BSA, pH7.4). 10 μl of compound or DMSO was diluted in 200 nM cyclic GMP solution and added to wells of a 96 well white plate to give 100 nM cyclic GMP in 1% DMSO final concentration. PDE (1A3, 1B or 1C) was diluted to 2× working concentration in HTRF assay buffer with […] Calmodulin, and 10 μl was added to initiate the reaction. The plate was then incubated for 45 minutes at 37° C. d2-Labelled cyclic GMP and anti-cGMP cryptate were diluted in 50 mM phosphate buffer, 0.8M KF, 1% Triton X100, 0.2% BSA, pH7.0. Following incubation 10 μl d2-cGMP, then 10 μl anti cGMP cryptate were added to each well and the plate was incubated for 45 minutes at room temperature. The plate was then read on Perkin Elmer Victor at 2 different FRET readings ex/emm 340 nm/665 nm and 340 nm/615 nm.
Compounds having an IC50 of <1 μM, are denoted as +++. Compounds having an IC50 of 1-10 μM, are denoted as ++. Compounds having an IC50 of >10 μM, are denoted as +.

Compound	IC50
CC(C)c1nn(C)c2c(=O)n3c(nc12)C(Cc1ccccc1)N(Cc1ccccc1)CC3 (racemic) [Compound I-48, (±)-5,6-Dibenzyl-3-isopropyl-1-methyl-5,6,7,8-tetrahydropyrazino[1,2-a]pyrazolo[4,3-d]pyrimidin-10(1H)-one]	> 10 µM
CC(C)CC1c2nc3c(cnn3C(C)C)c(=O)n2CCN1Cc1ccccc1 (racemic) [Compound I-56, (±)-8-benzyl-9-isobutyl-1-isopropyl-6,7,8,9-tetrahydropyrazino[1,2-a]pyrazolo[3,4-d]pyrimidin-4(1H)-one]	1 to 10 µM
CC(C)n1ncc2c(=O)n3c(nc21)C(c1ccccc1)N(C)CC3 (racemic) [Compound I-60, (±)-1-Isopropyl-8-methyl-9-phenyl-6,7,8,9-tetrahydropyrazino[1,2-a]pyrazolo[3,4-d]pyrimidin-4(1H)-one]	> 10 µM
CC1CNCc2nc3c(cnn3C3CCCC3)c(=O)n21 (racemic) [Compound I-99, (±)-1-cyclopentyl-6-methyl-6,7,8,9-tetrahydropyrazino[1,2-a]pyrazolo[3,4-d]pyrimidin-4(1H)-one]	> 10 µM
CC1CN(C)Cc2nc3c(cnn3C3CCCC3)c(=O)n21 (racemic) [Compound I-100, (±)-1-Cyclopentyl-6,8-dimethyl-6,7,8,9-tetrahydropyrazino[1,2-a]pyrazolo[3,4-d]pyrimidin-4(1H)-one]	> 10 µM
CC1CN(Cc2ccccc2)Cc2nc3c(cnn3C3CCCC3)c(=O)n21 (racemic) [Compound I-101, (±)-8-Benzyl-1-cyclopentyl-6-methyl-6,7,8,9-tetrahydropyrazino[1,2-a]pyrazolo[3,4-d]pyrimidin-4(1H)-one]	1 to 10 µM
CN1Cc2nc3c(cnn3C3CCCC3)c(=O)n2C(c2ccccc2)C1 (racemic) [Compound I-102, (±)-1-cyclopentyl-8-methyl-6-phenyl-6,7,8,9-tetrahydropyrazino[1,2-a]pyrazolo[3,4-d]pyrimidin-4(1H)-one]	> 10 µM
CC1Cn2c(nc3c(cnn3C(C)C)c2=O)CN1 (racemic) [Compound I-103, (±)-1-Isopropyl-7-methyl-6,7,8,9-tetrahydropyrazino[1,2-a]pyrazolo[3,4-d]pyrimidin-4(1H)-one]	> 10 µM
CC1Cn2c(nc3c(cnn3C(C)C)c2=O)CN1C (racemic) [Compound I-104, (±)-1-Isopropyl-7,8-dimethyl-6,7,8,9-tetrahydropyrazino[1,2-a]pyrazolo[3,4-d]pyrimidin-4(1H)-one]	> 10 µM
CC1Cn2c(nc3c(cnn3C(C)C)c2=O)CN1Cc1ccccc1 (racemic) [Compound I-105, (±)-8-Benzyl-1-isopropyl-7-methyl-6,7,8,9-tetrahydropyrazino[1,2-a]pyrazolo[3,4-d]pyrimidin-4(1H)-one]	< 1 µM
CC(C)n1ncc2c(=O)n3c(nc21)CNC(c1ccccc1)C3 (racemic) [Compound I-106, (±)-1-isopropyl-7-phenyl-6,7,8,9-tetrahydropyrazino[1,2-a]pyrazolo[3,4-d]pyrimidin-4(1H)-one]	> 10 µM
CC(C)n1ncc2c(=O)n3c(nc21)CN(C)C(c1ccccc1)C3 (racemic) [Compound I-107, (±)-1-Isopropyl-8-methyl-7-phenyl-6,7,8,9-tetrahydropyrazino[1,2-a]pyrazolo[3,4-d]pyrimidin-4(1H)-one]	> 10 µM
CC(C)n1ncc2c(=O)n3c(nc21)CN(Cc1ccccc1)C(c1ccccc1)C3 (racemic) [Compound I-108, (±)-8-Benzyl-1-isopropyl-7-phenyl-6,7,8,9-tetrahydropyrazino[1,2-a]pyrazolo[3,4-d]pyrimidin-4(1H)-one]	> 10 µM
CC(C)n1ncc2c(=O)n3c(nc21)CNC(Cc1ccccc1)C3 (racemic) [Compound I-109, (±)-7-Benzyl-1-isopropyl-6,7,8,9-tetrahydropyrazino[1,2-a]pyrazolo[3,4-d]pyrimidin-4(1H)-one]	> 10 µM
